The subject of test [1] is V9m reporter cell line expressing a 15-PGDH luciferase fusion construct. Nature of the test: 15-PGDH-luciferase fusion gene reporter induction, V9m cell line. It counts as cell-based. The settings on record: for percent reporter induction over basal at […]: read-out: V9M-SC3 Reporter activity % ([…]), Table 18, read-out: V9M-SC3 Reporter activity % (7.5 μM); for activation at […]: read-out: V9M reporter activity ([…]), […], % increased luciferase activity over basal level. From the text:
(§1) These cell lines are Vaco-9m (V9m), LS174T, Vaco503 (V503). […] Value of 1.0 on the Y-axis is the basal level of reporter activity in cells treated with drug free DMSO vehicle.
(§2) This Example provides data on a group of structural analogues of SW033291. Data provided includes level of induction of a 15-PGDH-luciferase fusion gene reporter, recorded as % increased luciferase activity over basal level, in three colon cancer cell lines, V9m, V503, and LS174T, engineered to contain the reporter, and treated with either 2.5 uM or 7.5 uM compound (i.e., Values are recorded on a scale where 100 indicates of doubling of luciferase activity over baseline level).
(§3) FIGS. 27(A-C) show graphs that show the level of compound's activity in inducing the 15-PGDH-luciferase fusion reporter in three different test cell line backgrounds, V9m, LS174T, and V503. Each compound was tested at two concentrations, 2.5 uM, and 7.5 uM. Y-axis is luciferase activity.
(§4) Data provided include level of induction of a 15-PGDH-luciferase fusion gene reporter, recorded as % induction of luciferase activity over basal level, in three colon cancer cell lines, V9m, V503, and LS174T, engineered to contain the reporter, and treated with either 2.5 uM or 7.5 uM compound. […] Additionally, for selected compounds is recorded the decrease in PGE2 levels in the media of compound treated A549 cells that have been stimulated with IL-1 beta. Additionally recorded for selected compounds is the effect on A549 cell viability as measured by a CellTiter-Glo assay, and the effect of compounds on A549 cell colony formation.

Test [2] addresses recombinant 15-PGDH protein (Homo sapiens (Human), UniProt P15428). As to the kind of experiment: Inhibition of enzymatic activity of recombinant 15-PGDH in vitro.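 Note: activity of recombinant human 15-PGDH assayed in vitro using PGE2 as the substrate.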 It counts as biochemical.
The subject of test [3] is LS174T reporter cell line expressing a 15-PGDH luciferase fusion construct. As to the kind of experiment: 15-PGDH-luciferase fusion gene reporter induction, LS174T cell line. It counts as cell-based. The conditions noted are these: Homo sapiens.
Source text: as §1, §2, §3, §4

Test [4] deals with Vaco503 reporter cell line expressing a 15-PGDH luciferase fusion construct. As to the kind of experiment: 15-PGDH-luciferase fusion gene reporter induction, Vaco503 (V503) cell line. It counts as cell-based. The settings on record: read-out: V503 reporter activity ([…]), […], % increased luciferase activity over basal level.
Source text: as §1, §2, §3, §4

Where [5] appears, read: read-out: Enzyme inhibition % ([…]), Table 18, […] compound, read-out: Enzyme inhibition % (2.5 μM).
The mark [6] stands for this setting: read-out: Enzyme inhibition % ([…]), Table 18, […] compound, read-out: Enzyme inhibition % (7.5 μM).
The mark [7] stands for this setting: 100 = doubling, read-out: V9M reporter activity (2.5 uM).
The mark [8] stands for this setting: read-out: V503 reporter activity (2.5 uM).
[9] abbreviates: read-out: V503 reporter activity (7.5 uM).
The mark [10] stands for this setting: read-out: V9M reporter activity (7.5 uM).
The mark [11] stands for this setting: read-out: LS174T reporter activity ([…]), […], % increased luciferase activity over basal level, read-out: LS174T reporter activity (2.5 uM).
The mark [12] stands for this setting: read-out: LS174T reporter activity ([…]), […], % increased luciferase activity over basal level, read-out: LS174T reporter activity (7.5 uM).
The mark [13] stands for this setting: read-out: Enzyme inhibition % ([…]), recombinant 15-PGDH, […] compound, read-out: Enzyme inhibition % (2.5 μM).
Setting [14] is: read-out: Enzyme inhibition % ([…]), recombinant 15-PGDH, […] compound, read-out: Enzyme inhibition % (7.5 μM).

Like-named read-outs stand apart in the source and are kept apart here.

recombinant 15-PGDH protein, sequence (P15428 whole entry, the tested form may be a part): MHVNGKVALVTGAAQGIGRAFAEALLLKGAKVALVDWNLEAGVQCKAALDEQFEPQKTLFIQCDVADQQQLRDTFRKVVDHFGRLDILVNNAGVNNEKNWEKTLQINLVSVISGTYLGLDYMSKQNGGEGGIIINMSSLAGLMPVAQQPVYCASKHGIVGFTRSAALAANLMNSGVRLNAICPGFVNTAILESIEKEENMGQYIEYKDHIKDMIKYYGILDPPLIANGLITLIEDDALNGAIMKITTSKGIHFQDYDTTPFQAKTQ

As a reminder, the inhibition is the relative decrease from the control value, in per cent. `COc1ccc(N(CC(=O)Nc2cccnc2)S(=O)(=O)c2ccccc2)c(OC)c1` [310875-38-8]: in test [1], the percent reporter induction over basal at […] was -16.4%. The inhibition at […] in test [2] (setting [5]) was determined as 23.5%; in test [2] (setting [6]), 33.4%.
Take `COc1ccc(OC)c(N(CC(=O)Nc2cccc(Cl)c2)S(=O)(=O)c2ccccc2)c1` [311315-25-0]: the activation at […] in test [3] (read-out: Ls174T-SC1 reporter activity, % ([…]), Table 18, […], read-out: Ls174T-SC1 reporter activity, % (2.5μM)) was determined as 62.6%; in test [3] (read-out: Ls174T-SC1 reporter activity, % ([…]), Table 18, […], read-out: Ls174T-SC1 reporter activity, % (7.5 μM)), 75.8%. Also, the inhibition at […] in test [2] (setting [5]) turned out to be 18.7%; in test [2] (setting [6]), 34.7%.
With `COc1ccc(OC)c(N(CC(=O)Nc2ccc(C)cc2)S(=O)(=O)c2ccccc2)c1` [311333-86-5], the percent reporter induction over basal at […] in test [1] came out at 117%. Besides, in test [2] (setting [5]), the inhibition at […] is 34%.
`COc1ccc(Cl)cc1N(CC(=O)Nc1cccnc1)S(=O)(=O)c1ccccc1` [328012-52-8]: the percent reporter induction over basal at […] in test [1] was 0.51%. In addition, the inhibition at […] is 67.4% in test [2] (setting [5]) and 82.1% in test [2] (setting [6]).
The corresponding values for `O=C(CN(c1ccccc1)S(=O)(=O)c1ccccc1)Nc1cccnc1` [331727-07-2] are 120%, 9.65% and 17.5%.
The corresponding values for `COc1ccc(OC)c(N(CC(=O)NC2CCCCC2)S(=O)(=O)c2ccccc2)c1` [333446-93-8] are 44%, -5.31% and 5.85%.
The like results for `COC(=O)c1ccccc1NC(=O)CN(c1cc(OC)ccc1OC)S(=O)(=O)c1ccccc1` [333449-58-4] were, in that order, 71.2%, 9.72% and -3.12%.
In the case of `COc1cccc(N(CC(=O)Nc2cccnc2)S(=O)(=O)c2ccccc2)c1` [335392-39-7], in test [1], the percent reporter induction over basal at […] is 7.18%. The inhibition at […] in test [2] (setting [5]) turned out to be 11%; in test [2] (setting [6]) it was 5.37%.
The like results for `COc1ccc(OC)c(N(CC(=O)Nc2ccc(Cl)cc2)S(=O)(=O)c2ccccc2)c1` [339589-53-6] were, in that order, 4.25%, 35.5% and 37.4%.
Turning to `COc1ccc(OC)c(N(CC(=O)Nc2ccc(Cl)c(Cl)c2)S(=O)(=O)c2ccccc2)c1` [339589-55-8], the percent reporter induction over basal at […] in test [1] came out at 8%. The inhibition at […] in test [2] (setting [5]) amounted to 19.1%; in test [2] (setting [6]), 22%.
In the case of `COc1ccccc1N(CC(=O)Nc1cccnc1)S(=O)(=O)c1ccccc1` [367929-80-4], the percent reporter induction over basal at […] in test [1] is -19%. In addition, the results for the inhibition at […] in test [2] (setting [5]) and in test [2] (setting [6]) were 8.95% and 34.8%, respectively.
The like results for `COc1ccc(N(CC(=O)Nc2cccnc2)S(=O)(=O)c2ccccc2)cc1` [418783-65-0] were, in that order, 67.2%, 10.8% and 12.1%.
The corresponding values for `COc1ccc(OC)c(N(CC(=O)Nc2ccc(F)cc2)S(=O)(=O)c2ccccc2)c1` [426231-26-7] are 2.5%, 39.8% and 56.4%.
The like results for `CCOc1ccc(N(CC(=O)Nc2cccnc2)S(=O)(=O)c2ccccc2)cc1` [428473-22-7] were, in that order, 2.05%, 3.76% and 8.67%.
With `CCc1ccc(N(CC(=O)Nc2cccnc2)S(=O)(=O)c2ccccc2)cc1` [461439-84-9], the percent reporter induction over basal at […] in test [1] was -41.8%. Further, the inhibition at […] worked out at 9.28% in test [2] (setting [5]) and 3.35% in test [2] (setting [6]).
The like results for `COc1ccc(OC)c(N(CC(=O)Nc2cccnc2)S(=O)(=O)c2ccc(C)cc2)c1` [505072-23-1] were, in that order, 71.5%, 67.4% and 84.6%.
The corresponding values for `COc1ccc(OC)c(N(CC(=O)Nc2cccnc2)S(C)(=O)=O)c1` [527699-66-7] are -37.2%, -20.6% and 27.9%.
The like results for `CCc1ccccc1N(CC(=O)Nc1cccnc1)S(=O)(=O)c1ccccc1` [528580-69-0] were, in that order, -0.5%, -8.22% and 10.2%.
On to `COc1ccc(OC)c(N(CC(=O)Nc2ccccc2C(N)=O)S(=O)(=O)c2ccccc2)c1` [530107-57-4], for which the percent reporter induction over basal at […] in test [1] stood at 116%. Further, the inhibition at […] in test [2] (setting [5]) is 21.7%; in test [2] (setting [6]) it was 9.25%.
The corresponding values for `COc1ccc(OC)c(N(CC(=O)Nc2cccnc2)S(=O)(=O)c2ccc(OC)c(OC)c2)c1` [680599-58-0] are -22.5%, 31.8% and 50.7%.
In the case of `O=C(CN(c1ccc2c(c1)OCCO2)S(=O)(=O)c1ccccc1)Nc1cccnc1` [701217-00-7], the percent reporter induction over basal at […] in test [1] is 79.5%. Also, the inhibition at […] in test [2] (setting [5]) stood at 10.1%; in test [2] (setting [6]), 13.1%.
With `O=C(CN(c1cc(Cl)ccc1Cl)S(=O)(=O)c1ccccc1)Nc1cccnc1` [833428-03-8], the percent reporter induction over basal at […] in test [1] worked out at 17.4%. Moreover, the inhibition at […] in test [2] (setting [5]) was 16.4%; in test [2] (setting [6]), 49.2%.
As for `Nc1c([S+]([O-])Cc2ccccc2)sc2nc(-c3cccs3)cc(-c3ccccc3)c12` (centres unmarked) [SW033292], the activation at […] in test [1] (setting [7]) is 1.51%.
For the compound `Nc1c(C(=O)O)sc2nc(-c3cccs3)cc(-c3ccccc3)c12` [SW206979, 3-Amino-4-phenyl-6-(thiophen-2-yl)thieno[2,3-b]pyridine-2-carboxylic acid], the activation at […] in test [4] (setting [8]) is 21.7%; in test [4] (setting [9]), 42.9%; in test [1] (setting [7]) it was -12.6%; in test [1] (setting [10]), -20.6%; in test [3] (setting [11]), 34.3%; in test [3] (setting [12]), 32.8%.
Turning to `COc1ccc(OC)c(N(CC(=O)N2CCCc3ccccc32)S(=O)(=O)c2ccccc2)c1` [SW208006], the inhibition at […] in test [2] (setting [13]) was 15.7%; in test [2] (setting [14]), 24.8%.
The corresponding values for `COc1ccc(S(=O)(=O)N(CC(=O)Nc2cccnc2)c2cc(C(F)(F)F)ccc2C(F)(F)F)cc1` [SW208008] are 58.7% and 70.9%.
As to `CCCC[S+]([O-])c1ncccc1[N+](=O)[O-]` (centres unmarked) [SW208069, 2-(butylsulfinyl)-3-nitropyridine], the activation at […] in test [4] (setting [8]) is 19.5%; in test [4] (setting [9]), 15.1%; in test [1] (setting [7]) it was -14.5%; in test [1] (setting [10]), 0.23%; in test [3] (setting [11]), 19.5%; in test [3] (setting [12]), 15.1%.

The values are drawn from patent publication US10301320B2, “Compositions and methods of modulating 15-PGDH activity” (CASE WESTERN RESERVE UNIVERSITY, priority 2012, dated 2019).
